The results in this text go back to PMC2724842 (Biochemistry, 2009).

Entries after “also recorded” stand apart in the source; their conditions may differ. Marks after values point to notes of the source that are not given here.

A word on the Km: it is the substrate concentration at which the rate is half of its maximum.

The target of experiment [1] is T1, Y410F IPMS (Mycobacterium tuberculosis, UniProt P9WQB3, Y410F). The format is biochemical. The note with it: for Km: read-out: K1 (Km).
Experiment [2] has as its target T2, E218A IPMS (Mycobacterium tuberculosis, UniProt P9WQB3, E218A). The format is biochemical.
The target of experiment [3] is T3, H379A IPMS (Mycobacterium tuberculosis, UniProt P9WQB3, H379A). The class given is biochemical.
For a further experiment, the target named is Y169F IPMS (Mycobacterium tuberculosis, UniProt P9WQB3, Y169F). The format is biochemical. The note with it: for Km: read-out: K1 (Km).
Experiment [4] addresses T2, E218A IPMS. The format is binding.
Another experiment addresses Y169F MtIPMS (Mycobacterium tuberculosis, UniProt P9WQB3, Y169F). The format is biochemical.
For experiment [5], the target named is T2, E218A IPMS. The format is biochemical. The source holds these as a separate data set.
In experiment [6] the target is T1, Y410F IPMS. The format is biochemical.
Experiment [7] concerns the target T3, H379A IPMS. The format is biochemical. The source holds these as a separate data set.
For experiment [8], the target named is T1, Y410F IPMS. The format is binding.

As for `CC(=O)SCCNC(=O)CCNC(=O)[C@H](O)C(C)(C)COP(=O)(O)OP(=O)(O)OC[C@H]1O[C@@H](n2cnc3c(N)ncnc32)[C@H](O)[C@@H]1OP(=O)(O)O` [Acetyl-CoA, acetyl-coenzyme A], on Y410F IPMS [1], the “kcat1 (kcat)” value came to 0.0933 ± 0.0033 s⁻¹ and the Km was found to be 1.1 ± 0.2 µM. Besides, at E218A IPMS [2], the K1 is on record as 9.5 ± 1.1 µM, the K2 is listed as 697 ± 615 µM, the kcat1 was found to be 0.0583 ± 0.0033 s⁻¹ and the kcat2 is 0.0933 ± 0.0467 s⁻¹. The “kcat1 (kcat)” value at H379A IPMS [3] came to 2.55 ± 0.033 s⁻¹. Moreover, the Km on H379A IPMS [3] (read-out: K1 (Km)) amounted to 23 ± 1.5 µM. In addition, on Y169F IPMS, the “kcat1 (kcat)” value stood at 5.67 ± 0.217 s⁻¹ and the Km worked out at 40 ± 6 µM.
As to `CC(C)C[C@H](N)C(=O)O` [L-leucine], at E218A IPMS [4], the “N (stoichiometry for binding)” value turned out to be 0.97 ± 0.01, the ΔH stood at 1.486 ± 0.031 kcal/mol and the ΔS was 28.5 cal/mol/K. In addition, the “inhibition at saturating L-leucine” value on Y169F MtIPMS is given as “fully inhibited; also recorded: completely inhibited”. Moreover, on E218A IPMS [5], the “activity retained, vss data” value is reported as 16% and the “β, limiting value for vi” value is 0.61/0.16 ^c. In addition, at Y410F IPMS [6], the “sensitivity to L-leucine inhibition” value is on record as “insensitive”. Besides, at H379A IPMS [7], the “activity retained at saturating L-leucine” value came to 24% and the “β (fractional activity at saturating inhibitor)” value is on record as 0.24. For the same compound, at Y410F IPMS [8], the “N (stoichiometry for binding)” value was found to be 0.91 ± 0.01, the ΔH was 2.598 ± 0.048 kcal/mol and the ΔS is recorded as 30.1 cal/mol/K.
On to `CC(C)C(=O)C(=O)O` [α-KIV, α-ketoisovalerate], for which, on Y410F IPMS [1], the “kcat1 (kcat)” value came to 0.075 ± 0.0033 s⁻¹ and the Km is 0.5 ± 0.1 µM. Moreover, at E218A IPMS [2], the K1 is given as 1.6 ± 0.2 µM, the K2 is 39 ± 11 µM, the kcat1 worked out at 0.0367 ± 0.0017 s⁻¹ and the kcat2 was found to be 0.0217 ± 0.0017 s⁻¹. Moreover, at H379A IPMS [3], the K1 was 1.6 ± 1.1 µM, the K2 turned out to be 19 ± 6 µM, the kcat1 was found to be 0.7 ± 0.3 s⁻¹ and the kcat2 was found to be 1.48 ± 0.283 s⁻¹. For the same compound, on Y169F IPMS, the “kcat1 (kcat)” value amounted to 4.75 ± 0.267 s⁻¹ and the Km turned out to be 13.4 ± 2.6 µM.
